Assay results reported in patent US20120283200A1, “PHARMACEUTICAL COMPOSITION AND METHOD FOR PREVENTING OR TREATING CHRONIC HEART DISEASE” (CHINA MEDICAL UNIVERSITY, priority 2011, published 2012).

Test system: H9c2 cells
Assay: Cell viability assay (MTT) of H9c2 cells in hypoxia-reoxygenation model
Type: cell-based, rat
Conditions: added 1 hour before hypoxia, 6 h hypoxia, 12 h reoxygenation, compounds 1, 3, 10 μM, metformin 10, 30, 100 μM, compared to the sham group, FIG. 1(b)
Procedure: Cell Viability Assay of H9c2 Cell in Hypoxia-Reoxygenation Model
Rat embryonic ventricular myoblast cell line, H9c2, are cultured in a DMEM medium supplemented with 10% fetal bovine serum (FBS), penicillin (10 U/mL), streptomycin (100 μg/mL) and amphotericin B (0.25 μg/mL) in 37° C. humidified 5% carbon dioxide (CO2) incubator. When the plate becomes confluent, maintain the culture at a 1:4 subculture split.
(1) H9c2 cells are cultured on a 60 mm plate (6×10^5 cells/plate) containing 10% FBS DMEM (high glucose DMEM) for 24 hours. The medium is replaced with DMEM with no serum for the starvation. At the same time, a medium containing DMEM with no glucose and no serum is adjusted to pH 6.8 and placed into a hypoxia chamber (95% N2 and 5% CO2, 37° C.) where the oxygen partial pressure is controlled to be less than 2% for a pretreatment for 24 hours. […]
Please refer to FIGS. 1(a) and 1(b), which are diagrams showing the effects of the compounds in the present invention and metformin on the viability of cells treated by the hypoxia-reoxygenation. The results are represented by the absorbance (OD) values of the hypoxia-reoxygenation treated group (IR OD)/the OD values of the control group (control OD) in FIG. 1(a) and the OD values of the drug-treated group (drug OD)/the OD values of the sham group (sham OD).

CN(C)C(=N)N=C(N)N [metformin]
viability of the cells treated with the hypoxia-reoxygenation (drug OD/sham OD): significantly increased

COc1cc(/C=C/C(=O)OCC2OC(Oc3ccc(C[C@H]4CO[C@H](c5ccc(O)c(OC)c5)[C@H]4CO)cc3OC)C(O)C(O)C2O)ccc1O (stereo partly drawn) [RS-47, lariciresinol 4′-(6″-O-feruloyl-β-D-glucopyranoside)]
viability of the cells treated with the hypoxia-reoxygenation (drug OD/sham OD): significantly increased
